Experimental data reported in ChEMBL document CHEMBL2434955, “Potent inhibition of norovirus by dipeptidyl α-hydroxyphosphonate transition state mimics” (Bioorg Med Chem Lett, 2013).

What was measured:
[1] = tested on: Norovirus; test: Antiviral activity against Norovirus in cell-based replicon system
[2] = tested on: Norovirus 3CL protease (Norovirus); test: Inhibition of Norovirus 3CL protease by FRET assay
[3] = organism: Homo sapiens; test: Inhibition of alpha-chymotrypsin (unknown origin) at 2.5 uM after 30 mins
[4] = target: Trypsin (Homo sapiens) (UniProt P07477+P07478+P35030); test: Inhibition of trypsin (unknown origin) at 125 uM after 30 mins; assay type: protein assay
[5] = target: Prothrombin (Homo sapiens) (UniProt P00734); test: Inhibition of thrombin (unknown origin) at 2.75 uM after 30 mins
[6] = organism: Homo sapiens; test: Inhibition of human neutrophil elastase at 17.5 uM after 30 mins
[7] = target: T1, Carboxypeptidase A1 (Homo sapiens) (UniProt P15085); test: Inhibition of carboxypeptidase A (unknown origin) at 43 uM after 30 mins
T1 sequence (whole entry): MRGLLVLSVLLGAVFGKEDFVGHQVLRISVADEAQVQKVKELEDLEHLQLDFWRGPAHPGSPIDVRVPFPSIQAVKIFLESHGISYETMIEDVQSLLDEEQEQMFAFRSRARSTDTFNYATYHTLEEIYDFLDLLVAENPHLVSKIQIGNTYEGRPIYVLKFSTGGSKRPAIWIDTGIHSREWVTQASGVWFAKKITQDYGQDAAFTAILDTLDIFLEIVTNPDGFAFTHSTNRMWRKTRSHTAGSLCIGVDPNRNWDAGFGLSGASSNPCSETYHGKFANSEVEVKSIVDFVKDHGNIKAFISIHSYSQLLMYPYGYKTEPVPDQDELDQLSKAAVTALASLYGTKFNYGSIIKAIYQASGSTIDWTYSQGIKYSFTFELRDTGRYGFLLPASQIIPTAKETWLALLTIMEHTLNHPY

Row | SMILES | EC50 [1] [µM] | IC50 [2] [µM] | further results
1 | O=C(N[C@@H](CC1CCCCC1)C(=O)N[C@@H](CC1CCNC1=O)C(O)P(=O)(OCc1ccccc1)OCc1ccccc1)OCc1ccccc1 (mixture of isomers) | 0.6 |  | 
2 | CCOP(=O)(OCC)C(O)[C@H](CC1CCNC1=O)NC(=O)[C@H](CC(C)C)NC(=O)OCc1ccccc1 (mixture of isomers) | 0.8 | 11.5 | 
3 | COP(=O)(OC)C(O)[C@H](CC1CCNC1=O)NC(=O)[C@H](CC(C)C)NC(=O)OCc1ccccc1 (mixture of isomers) | 3.5 | 20.2 | 
4 | CC(C)C[C@H](NC(=O)OCc1ccccc1)C(=O)N[C@@H](CC1CCNC1=O)C(O)P(=O)(O)O (mixture of isomers) | 7.5 |  | 
5 | CCOP(=O)(OCC)C(O)[C@H](CC1CCNC1=O)NC(=O)[C@H](CC1CCCCC1)NC(=O)OCc1ccccc1 (mixture of isomers) | 0.25 | 3.5 | inhibition [3]: 0%; inhibition [4]: 0%; inhibition [5]: 0%; inhibition [6]: 15%; inhibition [7]: 0%
6 | COP(=O)(OC)C(O)[C@H](CC1CCNC1=O)NC(=O)[C@H](CC1CCCCC1)NC(=O)OCc1ccccc1 (mixture of isomers) | 2.8 | 8.3 | 
7 | CCCCOP(=O)(OCCCC)C(O)[C@H](CC1CCNC1=O)NC(=O)[C@H](CC1CCCCC1)NC(=O)OCc1ccccc1 (mixture of isomers) | 0.5 |  | 
8 | O=C(N[C@@H](CC1CCCCC1)C(=O)N[C@@H](CC1CCNC1=O)C(O)P(=O)(OCC(F)(F)F)OCC(F)(F)F)OCc1ccccc1 (mixture of isomers) | 0.35 | 6.5 | 
